Experimental data reported in the CheMixHub viscosity set.
Where “and” joins values, the source holds several entries; their conditions need not be identical. Identical values can stand only once.

Assay: xn = mol fraction of the nth substance listed

CC1CCCCC1 + CCC(C)O
viscosity [mPa·s], 100 kPa
Details	x1 = 0.0811	x1 = 0.16	x1 = 0.24	x1 = 0.35	x1 = 0.4401	x1 = 0.56	x1 = 0.6501	x1 = 0.7401	x1 = 0.8492	x1 = 0.94
293.15 K	2.84	2.24	1.78	1.36	1.15	0.99	0.95	0.92	0.87	0.79
298.15 K	2.4	1.91	1.53	1.17	–	0.88	0.84	0.81	0.79	0.74
303.15 K	2.02	1.63	1.31	1.02	0.88	0.79	0.76	0.74	0.73	0.69
308.15 K	1.72	1.42	1.18	0.95	0.83	0.74	0.71	0.69	0.67	0.64
313.15 K	1.48	1.23	1.04	0.85	0.76	0.69	0.67	0.65	0.63	0.6
318.15 K	1.27	1.07	0.91	0.76	0.69	0.64	0.62	0.61	0.59	0.56
323.15 K	1.11	0.94	0.81	0.69	0.63	0.59	0.58	0.58	0.56	0.53

CC1CCCCC1 + CCCCCCCCCC
viscosity [mPa·s], 101 kPa
Details	293.15 K	298.15 K	303.15 K	308.15 K
x1 = 0.0406	0.9179	0.8528	0.7888	–
x1 = 0.1014	–	0.843	0.787	0.731
x1 = 0.2029	0.879	0.8207	0.76	–
x1 = 0.2034	–	0.824	0.77	0.716
x1 = 0.2805	0.8623	0.8054	0.747	–
x1 = 0.3035	–	0.806	0.753	0.7
x1 = 0.3569	0.8458	0.7898	0.7352	–
x1 = 0.4055	–	0.787	0.735	0.684
x1 = 0.4409	0.8287	0.7729	0.723	–
x1 = 0.5004	–	0.769	0.719	0.669
x1 = 0.5991	0.7985	0.7421	0.7008	–
x1 = 0.5998	–	0.751	0.702	0.654
x1 = 0.6756	0.7845	0.7282	0.6906	–
x1 = 0.7041	–	0.731	0.684	0.637
x1 = 0.7618	0.7694	0.7135	0.6796	–
x1 = 0.8039	–	0.713	0.667	0.621
x1 = 0.8475	0.7548	0.7009	0.6683	–
x1 = 0.8993	–	0.695	0.651	0.606
x1 = 0.9148	0.7428	0.6913	0.6592	–

CC(C)CC1CCCCC1 + CCCCCCCCCCCC
viscosity [mPa·s], 102 kPa
Details	x1 = 0.1	x1 = 0.2011	x1 = 0.3007	x1 = 0.4005	x1 = 0.4977	x1 = 0.5997	x1 = 0.6989	x1 = 0.7996
293.15 K	1.46	1.42	1.39	1.35	1.32	1.29	1.25	1.22
303.15 K	1.23	1.2	1.17	1.14	1.12	1.09	1.07	1.04
313.15 K	1.05	1.02	1	0.982	0.965	0.942	0.922	0.903
323.15 K	0.902	0.889	0.874	0.856	0.842	0.824	0.809	0.793

CCCNCCC + C1CCCCC1
viscosity [mPa·s], 101 kPa
Details	x1 = 0.01137	x1 = 0.02125	x1 = 0.03212	x1 = 0.0414	x1 = 0.05092	x1 = 0.06219	x1 = 0.07269	x1 = 0.08114	x1 = 0.09193
303.15 K	0.8095	0.8028	0.7945	0.784	0.7745	0.7633	0.7535	0.7441	0.7334
313.15 K	0.7072	0.6995	0.692	0.6827	0.6721	0.6596	0.649	0.6399	0.6296

CC1CCCCC1 + C1COCCO1
303.15 K, 101.3 kPa
Details	viscosity [mPa·s]
x2 = 0.1001	0.6334
x2 = 0.2013	0.6394
x2 = 0.296	0.653
x2 = 0.3948	0.6802
x2 = 0.5046	0.7196
x2 = 0.5993	0.7612
x2 = 0.7003	0.8213
x2 = 0.7956	0.8868
x2 = 0.896	0.9775

N#CCc1ccccc1 + ClC=C(Cl)Cl
Details	viscosity [mPa·s]
303.15 K, 101 kPa, x1 = 0.819	1.455

CCCCCl + C1CCOC1
viscosity [mPa·s], 101 kPa
Details	298.15 K	313.15 K
x2 = 0.0418	0.4311	0.3702
x2 = 0.052	0.434	–
x2 = 0.0524	0.4231	0.3656
x2 = 0.0982	0.4366	0.3758
x2 = 0.0985	0.439	–
x2 = 0.108	0.425	0.3675
x2 = 0.153	0.443	–
x2 = 0.1781	0.442	0.3808
x2 = 0.2063	0.4287	0.3706
x2 = 0.2076	0.444	0.3826
x2 = 0.29	0.449	–
x2 = 0.2991	0.4324	0.3737
x2 = 0.2996	0.4479	0.3869
x2 = 0.36	0.452	–
x2 = 0.4	0.4522	0.3911
x2 = 0.4088	0.4367	0.3772
x2 = 0.4229	0.455	–
x2 = 0.445	0.456	–
x2 = 0.4998	0.4547	0.3937
x2 = 0.507	0.4408	0.3804
x2 = 0.5395	0.457	–
x2 = 0.5516	0.4553	0.3943
x2 = 0.5945	0.458	–
x2 = 0.5979	0.4565	0.3955
x2 = 0.6074	0.4453	0.3838
x2 = 0.6605	0.459	–
x2 = 0.6991	0.458	0.3977
x2 = 0.7001	0.4495	0.387
x2 = 0.7649	0.46	–
x2 = 0.8021	0.4598	0.3997
x2 = 0.8054	0.4546	0.3907
x2 = 0.8499	0.46	0.3999
x2 = 0.8658	0.461	–
x2 = 0.891	0.4587	0.3939
x2 = 0.8993	0.4607	0.4
x2 = 0.9108	0.46	–
x2 = 0.9519	0.4598	0.4006
x2 = 0.9528	0.4613	0.3961

CNS(C)(=O)=O + c1ccncc1
303.15 K, 101.33 kPa
Details	viscosity [mPa·s]
x1 = 0.1002	1.039
x1 = 0.1975	1.31
x1 = 0.2809	1.61
x1 = 0.403	2.214
x1 = 0.5037	2.832
x1 = 0.5728	3.346
x1 = 0.7024	4.52
x1 = 0.8	5.676
x1 = 0.894	6.925

CCCNCCC + c1ccccc1
viscosity [mPa·s], 101 kPa
Details	x1 = 0.0105	x1 = 0.02072	x1 = 0.0306	x1 = 0.03896	x1 = 0.05078	x1 = 0.06138	x1 = 0.07232	x1 = 0.08121	x1 = 0.09171
303.15 K	0.5622	0.5617	0.561	0.5607	0.5602	0.5588	0.5575	0.5554	0.5542
313.15 K	0.4915	0.4902	0.4897	0.489	0.488	0.4872	0.4861	0.4851	0.4839

CCOC(=O)c1ccccc1 + CC#N
viscosity [mPa·s], 101.33 kPa
Details	x1 = 0.129	x1 = 0.25	x1 = 0.362	x1 = 0.469	x1 = 0.571	x1 = 0.657	x1 = 0.756	x1 = 0.832	x1 = 0.914
293.15 K	0.465	0.496	0.554	0.627	0.714	0.843	1.056	1.362	1.764
303.15 K	0.416	0.444	0.495	0.551	0.621	0.721	0.897	1.12	1.418
313.15 K	0.378	0.403	0.443	0.491	0.549	0.631	0.764	0.939	1.161
323.15 K	0.34	0.362	0.397	0.436	0.485	0.55	0.659	0.799	0.972

CCOC(=O)c1ccccc1 + CCCCO
viscosity [mPa·s], 101.3 kPa
Details	x1 = 0.0664	x1 = 0.1379	x1 = 0.2152	x1 = 0.299	x1 = 0.3901	x1 = 0.4897	x1 = 0.5988	x1 = 0.719	x1 = 0.852
303 K	2.029	2.002	1.967	1.935	1.902	1.874	1.839	1.809	1.78
308 K	1.87	1.837	1.814	1.783	1.754	1.713	1.679	1.646	1.618
313 K	1.599	1.582	1.567	1.559	1.54	1.52	1.499	1.484	1.47
318 K	1.444	1.439	1.426	1.42	1.407	1.4	1.39	1.381	1.372
323 K	1.324	1.318	1.309	1.301	1.29	1.284	1.274	1.269	1.259

CCCC[N+]1(C)CCCC1.N#C[S-] + O
Details	viscosity [mPa·s]
298.15 K, 101 kPa, x1 = 0.9147	91.83

[Na+].[OH-] + O
Details	viscosity
293.15 K, 101.33 kPa, x2 = 0.67	96.16 mPa·s
293.15 K, 101.33 kPa, x2 = 0.8	22.24 mPa·s
293.15 K, 101.33 kPa, x2 = 0.83	18.37 mPa·s
293.15 K, 101.33 kPa, x2 = 0.85	9.529 mPa·s
293.15 K, 101.33 kPa, x2 = 0.86	8.225 mPa·s
293.15 K, 101.33 kPa, x2 = 0.89	6.356 mPa·s
293.15 K, 101.33 kPa, x2 = 0.9	4.63 mPa·s
323.15 K, 101 kPa, x1 = 0.009	0.609 mPa·s
323.15 K, 101 kPa, x1 = 0.026	0.745 mPa·s
323.15 K, 101 kPa, x1 = 0.05	1.02 mPa·s
323.15 K, 101 kPa, x1 = 0.1	1.88 mPa·s and 3.28 mPa·s
323.15 K, 101 kPa, x1 = 0.18	5.04 mPa·s
323.15 K, 101 kPa, x1 = 0.22	7.88 mPa·s
323.15 K, 101 kPa, x1 = 0.3	10.9 mPa·s

CCCNCCC + CCCCOCCOCCO
viscosity [mPa·s], 100 kPa
Details	298.15 K	303.15 K	308.15 K
x2 = 0.05007	0.5938	0.5507	0.5178
x2 = 0.1002	0.6906	0.6377	0.5959
x2 = 0.1502	0.8054	0.7394	0.6889
x2 = 0.2	0.9457	0.8562	0.7964
x2 = 0.3001	1.339	1.183	1.093
x2 = 0.3999	1.79	1.571	1.437
x2 = 0.4999	2.311	1.998	1.819
x2 = 0.5997	2.952	2.519	2.248
x2 = 0.7	3.584	3.042	2.71
x2 = 0.7999	4.119	3.507	3.124
x2 = 0.8998	4.617	3.926	3.5
x2 = 0.9491	4.857	4.132	3.683

CC(=O)[O-].CCCC[NH2+]CCO + CCCCn1cc[n+](C)c1.O=S(=O)([N-]S(=O)(=O)C(F)(F)F)C(F)(F)F
Details	viscosity [mPa·s]
308.15 K, 101 kPa, x1 = 0.901	343.5

CCCCCl + CCCCCCCCCCCC
298 K, 101.3 kPa
Details	viscosity [mPa·s]
x2 = 0.1032	0.5072
x2 = 0.202	0.5794
x2 = 0.2999	0.6598
x2 = 0.3986	0.7447
x2 = 0.4981	0.8232
x2 = 0.6017	0.9282
x2 = 0.7015	1.034
x2 = 0.7981	1.13
x2 = 0.8948	1.22
